# Patent publication US8841312B2, “Fused pyridine, pyrimidine and triazine compounds as cell cycle inhibitors” (Amgen Inc., priority 2007, dated 2014)
# Molecular target: Cdk4/CyclinD1 (Homo sapiens (Human), UniProt P11802)
# Assay: Cdk4 kinase inhibition assay with recombinant Cdk4/CyclinD1, Rb substrate, [33P]-ATP filter plate
# Assay type: biochemical
# Conditions: 25 μM ATP, read-out: Cdk 4 IC50
# Outline: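 Recombinant Cdk4/CyclinD1 or Cdk6/CyclinD3 phosphorylated Rb protein with [33P]-ATP for 1 h at room temperature. Protein was TCA-precipitated on filter plates and bound radioactivity counted. IC50 by nonlinear regression.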
# Cdk4/CyclinD1, sequence (P11802 whole entry): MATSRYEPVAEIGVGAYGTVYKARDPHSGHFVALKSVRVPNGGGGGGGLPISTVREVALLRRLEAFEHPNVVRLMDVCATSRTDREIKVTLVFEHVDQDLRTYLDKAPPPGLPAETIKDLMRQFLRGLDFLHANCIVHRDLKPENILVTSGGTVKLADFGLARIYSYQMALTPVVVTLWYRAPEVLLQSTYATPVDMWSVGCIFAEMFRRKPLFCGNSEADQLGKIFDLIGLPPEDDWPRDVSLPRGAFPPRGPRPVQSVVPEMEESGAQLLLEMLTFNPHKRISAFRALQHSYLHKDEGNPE
# Cdk4/CyclinD1, sequence (P24385 whole entry partner): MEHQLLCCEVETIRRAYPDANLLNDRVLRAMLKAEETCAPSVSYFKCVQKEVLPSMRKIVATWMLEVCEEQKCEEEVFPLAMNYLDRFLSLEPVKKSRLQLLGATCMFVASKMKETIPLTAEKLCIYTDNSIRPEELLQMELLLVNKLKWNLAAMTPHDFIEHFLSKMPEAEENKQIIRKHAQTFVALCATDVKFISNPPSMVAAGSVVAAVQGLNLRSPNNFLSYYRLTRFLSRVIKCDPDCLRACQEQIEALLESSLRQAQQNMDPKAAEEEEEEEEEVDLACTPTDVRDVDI
row,Compound,IC50 [nM]
1,COCCn1c2cnccc2c2cnc(Nc3ccc(N4CCC(N(C)C)CC4)nn3)nc21 [Example 315],1380
2,CC[C@H](C)n1c2cnccc2c2cnc(Nc3ccc(N4CCC(N(C)C)CC4)cn3)nc21 [Example 326],620
3,CC[C@H](C)n1c2cnccc2c2cnc(Nc3ccc(N4CCC(N(C)C)CC4)nn3)nc21 [Example 327],630
4,CC[C@H](C)n1c2cnccc2c2cnc(Nc3ccc(N4CCN[C@@H](C)C4)cn3)nc21 [Example 329],500
5,CC[C@H](C)n1c2cnccc2c2cnc(Nc3ccc(N4CCNCC4)cn3)nc21 [Example 330],248
6,CC[C@H](C)n1c2cnccc2c2cnc(Nc3ccc(N4CCNCC4)nn3)nc21 [Example 331],390
7,CC[C@H](C)n1c2cnccc2c2cnc(Nc3ccc(N4CCN[C@@H](C)C4)nn3)nc21 [Example 333],300
8,CC[C@H](C)n1c2cnccc2c2cnc(Nc3ccc(N4CCC(NC)CC4)nn3)nc21 [Example 334],800
9,CC[C@H](C)n1c2cnccc2c2cnc(Nc3ccc(N4CCC(NC)CC4)cn3)nc21 [Example 335],1630
10,CC1(C)CN(c2ccc(Nc3ncc4c5ccncc5n([C@@H]5CCNC5)c4n3)nc2)CCN1 [Example 338],302
11,C[C@H]1CN(c2ccc(Nc3ncc4c5ccncc5n([C@@H]5CCNC5)c4n3)nc2)CCN1 [Example 339],300
12,CNC1CCN(c2ccc(Nc3ncc4c5ccncc5n([C@@H]5CCNC5)c4n3)nc2)CC1 [Example 340],370
13,CNC1CCN(c2ccc(Nc3ncc4c5ccncc5n([C@H]5CCC[C@H]5O)c4n3)nn2)CC1 [Example 364],258
14,O[C@@H]1CCN(c2ccc(Nc3ncc4c5ccncc5n([C@H]5CCC[C@H]5O)c4n3)nn2)C1 [Example 366],330
15,CNC1CCN(c2ccc(Nc3ncc4c5ccncc5n([C@@H](C)CO)c4n3)nc2)CC1 [Example 367],350
16,C[C@@H](CO)n1c2cnccc2c2cnc(Nc3ccc(N4CC[C@@H](O)C4)cn3)nc21 [Example 368],284

row,Compound,IC50 [nM]
1,CNC1CCN(c2ccc(Nc3ncc4c5ccncc5n([C@H](C)CO)c4n3)nc2)CC1 [Example 380],261
2,C[C@H](CO)n1c2cnccc2c2cnc(Nc3ccc(N4CCN[C@@H](C)C4)cn3)nc21 [Example 381],2000
3,C[C@H](CO)n1c2cnccc2c2cnc(Nc3ccc(N4CCN[C@@H](C)C4)nn3)nc21 [Example 387],227
4,O[C@@H]1CCN(c2ccc(Nc3ncc4c5ccncc5n([C@@H]5CCOC5)c4n3)nn2)C1 [Example 392],219
5,CNC1CCN(c2ccc(Nc3ncc4c5ccncc5n([C@H]5CCC[C@H]5O)c4n3)nc2)CC1 [Example 393],300
6,CN(C)C1CCN(c2ccc(Nc3ncc4c5ccncc5n([C@H]5CCOC5)c4n3)nc2)CC1 [Example 394],1190
7,CN(C)C1CCN(c2ccc(Nc3ncc4c5ccncc5n([C@H]5CCOC5)c4n3)nn2)CC1 [Example 395],300
8,O[C@@H]1CCN(c2ccc(Nc3ncc4c5ccncc5n([C@H]5CCOC5)c4n3)nc2)C1 [Example 396],238
9,O[C@@H]1CCN(c2ccc(Nc3ncc4c5ccncc5n([C@H]5CCOC5)c4n3)nn2)C1 [Example 397],340
10,O[C@H]1CCC[C@@H]1n1c2cnccc2c2cnc(Nc3ccc(N4CCNCC4)cn3)nc21 [Example 398],330
11,CNC1CCN(c2ccc(Nc3ncc4c5ccncc5n([C@H]5CCC[C@@H]5O)c4n3)nc2)CC1 [Example 400],301
12,O[C@@H]1CCN(c2ccc(Nc3ncc4c5ccncc5n([C@H]5CCC[C@@H]5O)c4n3)nc2)C1 [Example 403],350
13,O[C@H]1CCC[C@@H]1n1c2cnccc2c2cnc(Nc3ccc(N4CCNCC4)nn3)nc21 [Example 404],820
14,CN(C)C1CCN(c2ccc(Nc3ncc4c5ccncc5n([C@H]5CCC[C@@H]5O)c4n3)nn2)CC1 [Example 405],750
15,CNC1CCN(c2ccc(Nc3ncc4c5ccncc5n([C@H]5CCC[C@@H]5O)c4n3)nn2)CC1 [Example 406],360

# Continued by falling IC50, values first:
row,IC50 [nM],Compound
1,218,C[C@H](CO)n1c2cnccc2c2cnc(Nc3ccc(N4CCNC(C)(C)C4)nn3)nc21 [Example 388]
2,216,C[C@H](CO)n1c2cnccc2c2cnc(Nc3ccc(N4CCC(N(C)C)CC4)nn3)nc21 [Example 385]
3,211,C[C@H]1CN(c2ccc(Nc3ncc4c5ccncc5n([C@H]5CCC[C@H]5O)c4n3)nn2)CCN1 [Example 363]
4,184,CN(C)C1CCN(c2ccc(Nc3ncc4c5ccncc5n([C@@H]5CCOC5)c4n3)nn2)CC1 [Example 391]
5,175,CC1(C)CN(c2ccc(Nc3ncc4c5ccncc5n([C@H]5CCC[C@@H]5O)c4n3)nc2)CCN1 [Example 402]
6,170,C[C@H]1CN(c2ccc(Nc3ncc4c5ccncc5n([C@H]5CCC[C@@H]5O)c4n3)nc2)CCN1 [Example 401]
7,166,C[C@H](CO)n1c2cnccc2c2cnc(Nc3ccc(N4CC[C@@H](O)C4)nn3)nc21 [Example 389]
8,162,O[C@@H]1CCC[C@@H]1n1c2cnccc2c2cnc(Nc3ccc(N4CCNCC4)nn3)nc21 [Example 362]
9,161,C[C@@H](CO)n1c2cnccc2c2cnc(Nc3ccc(N4CCC(N(C)C)CC4)cn3)nc21 [Example 370]
10,159,CC1(C)CN(c2ccc(Nc3ncc4c5ccncc5n([C@H]5CCC[C@H]5O)c4n3)nn2)CCN1 [Example 365]
11,152,C[C@H](CO)n1c2cnccc2c2cnc(Nc3ccc(N4CC[C@@H](O)C4)cn3)nc21 [Example 382]
12,143,C[C@H](CO)n1c2cnccc2c2cnc(Nc3ccc(N4CCNCC4)nn3)nc21 [Example 384]
13,129,C[C@@H](CO)n1c2cnccc2c2cnc(Nc3ccc(N4CCC(N(C)C)CC4)nn3)nc21 [Example 372]
14,123,"CN(C)C1CCN(c2ccc(Nc3ncc4c5ccncc5n([C@H]5CC[C@H](O)CC5)c4n3)nn2)CC1 [Example 287, Trans-4-(2-((6-(4-(dimethylamino)-1-piperidinyl)-3-pyridazinyl)amino)-9H-pyrido[4′,3′:4,5]pyrrolo[2,3-d]pyrimidin-9-yl)cyclohexanol]"
15,123,O[C@@H]1CCN(c2ccc(Nc3ncc4c5ccncc5n([C@H]5CCC[C@H]5O)c4n3)nc2)C1 [Example 371]
16,86,C[C@@H](CO)n1c2cnccc2c2cnc(Nc3ccc(N4CC[C@@H](O)C4)nn3)nc21 [Example 374]
17,85,C[C@@H](CO)n1c2cnccc2c2cnc(Nc3ccc(N4CCNC(C)(C)C4)cn3)nc21 [Example 378]
18,73,C[C@H]1CN(c2ccc(Nc3ncc4c5ccncc5n([C@@H](C)CO)c4n3)nn2)CCN1 [Example 377]
19,71,C[C@H]1CN(c2ccc(Nc3ncc4c5ccncc5n([C@H]5CCC[C@H]5O)c4n3)nc2)CCN1 [Example 359]

row,IC50 [nM],Compound
1,66,CC1(C)CN(c2ccc(Nc3ncc4c5ccncc5n([C@H]5CCC[C@H]5O)c4n3)nc2)CCN1 [Example 360]
2,62,C[C@H](CO)n1c2cnccc2c2cnc(Nc3ccc(N4CCNC(C)(C)C4)cn3)nc21 [Example 383]
3,57,CN(C)C1CCN(c2ccc(Nc3ncc4c5ccncc5n([C@H]5CCC[C@@H]5O)c4n3)nc2)CC1 [Example 399]
4,53,CNC1CCN(c2ccc(Nc3ncc4c5ccncc5n([C@H](C)CO)c4n3)nn2)CC1 [Example 386]
5,51,CC[C@H](C)n1c2cnccc2c2cnc(Nc3ccc(N4CCNC(C)(C)C4)cn3)nc21 [Example 328]
6,50,C[C@H](CO)n1c2cnccc2c2cnc(Nc3ccc(N4CCC(N(C)C)CC4)cn3)nc21 [Example 376]
7,45,CNC1CCN(c2ccc(Nc3ncc4c5ccncc5n([C@@H](C)CO)c4n3)nn2)CC1 [Example 373]
8,40,C[C@H](CO)n1c2cnccc2c2cnc(Nc3ccc(N4CCNCC4)cn3)nc21 [Example 375]
9,35,C[C@H]1CN(c2ccc(Nc3ncc4c5ccncc5n([C@H]5CCC[C@@H]5O)c4n3)nn2)CCN1 [Example 407]
10,22,CC[C@H](C)n1c2cnccc2c2cnc(Nc3ccc(N4CC[C@@H](O)C4)nn3)nc21 [Example 337]
11,16,CC[C@H](C)n1c2cnccc2c2cnc(Nc3ccc(N4CCNC(C)(C)C4)nn3)nc21 [Example 332]
12,11,"CCN(CC)C1CCN(c2ccc(Nc3ncc4c5ccnc(OC)c5n(C5CCCC5)c4n3)nn2)CC1 [Example 283, 9-cyclopentyl-N-(6-(4-(diethylamino)-1-piperidinyl)-3-pyridazinyl)-8-methoxy-9H-pyrido[4′,3′:4,5]pyrrolo[2,3-d]pyrimidin-2-amine]"
13,11,C[C@@H](CO)n1c2cnccc2c2cnc(Nc3ccc(N4CCNC(C)(C)C4)nn3)nc21 [Example 379]
14,5,"CCN(CC)C1CCN(c2ccc(Nc3ncc4c5ccnc(O)c5n(C5CCCC5)c4n3)nc2)CC1 [Example 284, 9-Cyclopentyl-2-((5-(4-(diethylamino)-1-piperidinyl)-2-pyridinyl)amino)-9H-pyrido[4′,3′:4,5]pyrrolo[2,3-d]pyrimidin-8-ol]"
15,3.9,CN(CCO)c1ccc(Nc2ncc3c4ccncc4n(C4CCCC4)c3n2)nn1 [Example 291]
16,2.8,"CCN(CC)C1CCN(c2ccc(Nc3ncc4c5ccnc(O)c5n(C5CCCC5)c4n3)nn2)CC1 [Example 282, 9-cyclopentyl-2-((6-(4-(diethylamino)-1-piperidinyl)-3-pyridazinyl)amino)-9H-pyrido[4′,3′:4,5]pyrrolo[2,3-d]pyrimidin-8-ol]"
17,2.6,"CCN(CC)C1CCN(c2ccc(Nc3ncc4c5ccnc(OC)c5n(C5CCCC5)c4n3)nc2)CC1 [Example 285, 9-cyclopentyl-N-(5-(4-(diethylamino)-1-piperidinyl)-2-pyridinyl)-8-methoxy-9H-pyrido[4′,3′:4,5]pyrrolo[2,3-d]pyrimidin-2-amine]"
18,2,CC[C@H](C)n1c2cnccc2c2cnc(Nc3ccc(N4CC[C@@H](O)C4)cn3)nc21 [Example 336]
